According to publication PMC6968383, “Design, synthesis, in vitro and in vivo evaluation of benzylpiperidine-linked 1,3-dimethylbenzimidazolinones as cholinesterase inhibitors against Alzheimer’s disease” (Journal of Enzyme Inhibition and Medicinal Chemistry, 2019):
Like-named read-outs stand apart in the source and are kept apart here.

Columns and labels:
[1] = biological target: T1, AChE (EC 3.1.1.7) from electric eel (Electrophorus electricus, UniProt O42275); assay: biochemical; format: biochemical; settings: for SI (selectivity index = AChE IC50/BChE IC50): eeAChE IC50 / eqBChE IC50; for IC50: eeAChE, mean ± SEM of triplicate independent experiments, read-out: AChE IC50
T1 construct: purchased Sigma-Aldrich
T1 sequence (O42275 24-633): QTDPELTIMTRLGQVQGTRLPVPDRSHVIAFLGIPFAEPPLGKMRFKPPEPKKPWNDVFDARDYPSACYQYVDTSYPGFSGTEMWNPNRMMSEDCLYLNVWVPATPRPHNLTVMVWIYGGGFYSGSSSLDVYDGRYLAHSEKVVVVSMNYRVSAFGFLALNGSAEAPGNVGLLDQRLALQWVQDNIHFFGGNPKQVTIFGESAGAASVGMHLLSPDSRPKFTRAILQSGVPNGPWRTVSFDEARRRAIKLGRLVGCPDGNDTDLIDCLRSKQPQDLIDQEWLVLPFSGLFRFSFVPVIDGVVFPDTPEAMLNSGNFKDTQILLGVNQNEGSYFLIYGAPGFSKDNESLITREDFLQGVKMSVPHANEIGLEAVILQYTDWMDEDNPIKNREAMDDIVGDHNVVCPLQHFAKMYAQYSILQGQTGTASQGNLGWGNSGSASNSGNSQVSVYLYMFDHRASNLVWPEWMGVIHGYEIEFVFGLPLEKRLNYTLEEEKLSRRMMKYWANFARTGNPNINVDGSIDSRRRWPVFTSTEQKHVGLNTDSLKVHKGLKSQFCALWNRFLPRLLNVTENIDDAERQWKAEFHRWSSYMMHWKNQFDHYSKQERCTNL
Procedure: (§1) The data were expressed as IC50 values (Table 1).
(§2) The inhibitory activities of the target compounds towards AChE (from Electrophorus electricus (electric eeAChE, Sigma-Aldrich) and horse serum BChE (eqBChE, Sigma-Aldrich) or human AChE – huAChE; human BuChE – huBuChE (huAChE, huBuChE, Sigma-Aldrich) were measured by Ellman’s method. In 96-well plates, a mixture of phosphate buffer (0.1 M, pH 8.0, […]), 5,5′-dithiobis-2-nitrobenzoic acid (DTNB, 60 µL), acetylcholinestrase or butyrylcholinesterase (20 µL, 5 IU/mL) and different concentration of the compound solution (30 µL) was pre-incubated for 5 min followed by the addition of the substrate (acetylthiocholine iodide or butyrylthiocholine iodide, 20 µL). […] The measurement of each concentration for each compound was detected in triplicate. GraphPad Prism 6.0 (GraphPad Software, Inc., La Jolla, CA) was used for data processing. The inhibition curve was fitted by plotting percentage enzyme activity (100% for the reference) versus the logarithm of the concentration of tested compound. The half-maximal inhibitory concentration (IC50) values were calculated according to the inhibition curve and the data were shown in the layout of mean ± SEM by GraphPad Prism 6.0.

[2] = biological target: T2, BChE (EC 3.1.1.8) from horse serum (Equus caballus, UniProt P81908); assay: biochemical; settings: eqBChE; mean ± SEM of triplicate independent experiments; read-out: BChE IC50
T2 construct: horse serum BChE (eqBChE, Sigma-Aldrich); purchased Sigma-Aldrich; host or cells: horse serum
T2 sequence (P81908 whole entry): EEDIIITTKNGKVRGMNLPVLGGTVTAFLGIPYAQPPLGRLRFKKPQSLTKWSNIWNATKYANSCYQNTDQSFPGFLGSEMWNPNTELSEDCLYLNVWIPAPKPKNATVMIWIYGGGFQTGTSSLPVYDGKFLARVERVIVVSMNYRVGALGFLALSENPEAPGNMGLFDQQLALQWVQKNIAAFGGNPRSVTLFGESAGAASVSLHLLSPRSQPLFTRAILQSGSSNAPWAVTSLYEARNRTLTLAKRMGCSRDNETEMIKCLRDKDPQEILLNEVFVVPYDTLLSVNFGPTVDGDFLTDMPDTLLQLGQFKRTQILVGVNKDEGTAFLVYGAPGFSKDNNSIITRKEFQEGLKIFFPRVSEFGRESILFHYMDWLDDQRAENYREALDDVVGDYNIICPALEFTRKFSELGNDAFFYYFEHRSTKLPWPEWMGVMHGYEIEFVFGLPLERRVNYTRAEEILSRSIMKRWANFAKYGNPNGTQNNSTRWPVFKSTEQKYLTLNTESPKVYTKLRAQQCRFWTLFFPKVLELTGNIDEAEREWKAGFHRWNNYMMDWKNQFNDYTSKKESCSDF
Procedure: as §1, §2

[3] = format: in vivo; settings: serum, tacrine 30 mg kg−1, mean ± SEM n = 6
Procedure: . Heparinised serum was obtained after the treatment of 15b and 15j at 8, 22, and 36 h, respectively. The serum levels of ALT and AST are directly proportional to the severity of the liver damage. […]

[4] = test system: liver; assay: Liver histopathological study (HE staining); settings: 36 h after administration, compared to control group
Text: Figure 7. […] HE staining, original magnification ×200.

[5] = test system: scopolamine-induced cognition impairment in ICR mice; assay: Morris water maze test, scopolamine-induced cognition impairment; format: in vivo; settings: oral 15 mg kg−1, scopolamine 1 mg kg−1 ip, probe trial on sixth day, mean ± SEM n = 6
Procedure: The test included 5 days of learning and memory training and a probe trial on the sixth day.
Scopolamine hydrobromide was supplied by Aladdin Reagents (H1507073, Shanghai, China).
Cognitive function was evaluated by the Morris water maze analysis-management system (SMART 3.0, Panlab, Madrid, Spain), according to the method previously described[30].The maze was placed in a lit room with visual cues at 25 °C. An escape platform (10 cm diameter) was located in the centre of one quadrant of the circular pool (120 cm diameter, 60 cm height) with a depth of 40 cm water. The behavioural study of each mouse included 5 days of learning and memory training and a probe trial on day 6. The animal starting positions faced to the pool wall, and were pseudorandomised for each trial. For the cognitive evaluation, each mouse was individually evaluated on both visible-platform (days 1–2) and hidden-platform (days 3–5) versions of the water maze. All mice received nonspatial pretraining during the first two training days, which prepared them for the subsequent spatial learning test. During the two days, mice were trained to find the platform that was labelled by a small flag (5 cm tall). The hidden platform version was used to determine the retention of memory to find the platform. During the hidden-platform training trials, the escape platform was placed 1 cm below the surface of the water. On each day, the animal was subjected to two trials, each of which lasted for 90 s. The time for the mouse to find the platform (a successful escape) was recorded. […] On the last day (day 6), the platform was removed from its location and the animals were given a probe trial in which they had 90 s to search for the platform. The time taken to reach the missing platform and the number of times the animals crossed the platform location were recorded.
Data for the time of escape latency, the trajectory travelled, and the number of platform location crossings were recorded by SMART 3.0, Panlab, Madrid, Spain and processed by GraphPad Prism 6.0.

| Compound | SI (selectivity index = AChE IC50/BChE IC50) [1] | IC50 [1] [nM] | IC50 [2] [nM] | other results |
| --- | --- | --- | --- | --- |
| Cc1cccc(CN2CCC(CNS(=O)(=O)c3ccc4c(c3)n(C)c(=O)n4C)CC2)c1 [Compound 15c, 1,3-dimethyl-N-((1–(3-methylbenzyl)piperidin-4-yl)methyl)-2-oxo-2,3-dihydro-1H-benzo[d]imidazole-5-sulphonamide] | 1.14 | 540 ± 140 | 470 ± 170 | – |
| Cc1ccc(CN2CCC(CNS(=O)(=O)c3ccc4c(c3)n(C)c(=O)n4C)CC2)cc1 [Compound 15d, 1,3-dimethyl-N-((1–(4-methylbenzyl)piperidin-4-yl)methyl)-2-oxo-2,3-dihydro-1H-benzo[d]imidazole-5-sulphonamide] | 0.24 | 24800 ± 3480 | 100000 ± 22100 | – |
| COc1cccc(CN2CCC(CNS(=O)(=O)c3ccc4c(c3)n(C)c(=O)n4C)CC2)c1 [Compound 15e, N-((1–(3-methoxybenzyl)piperidin-4-yl)methyl)-1,3-dimethyl-2-oxo-2,3-dihydro-1H-benzo[d]imidazole-5-sulphonamide] | 0.45 | 9350 ± 2320 | 20300 ± 3080 | – |
| Cn1c(=O)n(C)c2cc(S(=O)(=O)NCC3CCN(Cc4cccc(F)c4)CC3)ccc21 [Compound 15f, N-((1–(3-fluorobenzyl)piperidin-4-yl)methyl)-1,3-dimethyl-2-oxo-2,3-dihydro-1H-benzo[d]imidazole-5-sulphonamide] | 0.75 | 1040 ± 480 | 1370 ± 740 | – |
| Cn1c(=O)n(C)c2cc(S(=O)(=O)NCC3CCN(Cc4cccc(Cl)c4)CC3)ccc21 [Compound 15g, N-((1–(3-chlorobenzyl)piperidin-4-yl)methyl)-1,3-dimethyl-2-oxo-2,3-dihydro-1H-benzo[d]imidazole-5-sulphonamide] | 0.15 | 150 ± 20 | 1010 ± 460 | – |
| Cn1c(=O)n(C)c2cc(S(=O)(=O)NCC3CCN(Cc4ccc(Cl)cc4)CC3)ccc21 [Compound 15h, N-((1–(4-chlorobenzyl)piperidin-4-yl)methyl)-1,3-dimethyl-2-oxo-2,3-dihydro-1H-benzo[d]imidazole-5-sulphonamide] | 0.87 | 1950 ± 280 | 2230 ± 810 | – |
| Cn1c(=O)n(C)c2cc(S(=O)(=O)NCC3CCN(Cc4ccccc4Br)CC3)ccc21 [Compound 15i, N-((1–(2-bromobenzyl)piperidin-4-yl)methyl)-1,3-dimethyl-2-oxo-2,3-dihydro-1H-benzo[d]imidazole-5-sulphonamide] | – | 420 ± 60 | 220 ± 40 | – |
| Nc1c2c(nc3ccccc13)CCCC2 [Tacrine] | – | – | – | ALT ([3]; 8 h after treatment): 32.7 ± 1.7 U/L; AST ([3]; 8 h after treatment): 95.1 ± 9.5 U/L; ALT ([3]; 22 h after treatment): 31.7 ± 1.2 U/L; AST ([3]; 22 h after treatment): 108.9 ± 6.1 U/L; ALT ([3]; 36 h after treatment): 35.8 ± 6.7 U/L; AST ([3]; 36 h after treatment): 110.4 ± 9.4 U/L; morphologic changes in liver [4]: did not result in remarkable morphologic changes in liver; Distance to target [5]: 310.01 ± 9.54 cm; Latency to target [5]: 12.06 ± 0.37 s |
